Literature values, collected in US20070224637A1, “Oxidative protection of lipid layer biosensors” (priority 2006, published 2007).

| Compound | Solubility In alcohol | Solubility In oil | Solubility In water |
| --- | --- | --- | --- |
| O[C@H](CS)[C@H](O)CS (racemic) [Dithiothreitol] | Yes | No | Yes |
| CC(C)(C)c1cc(CO)cc(C(C)(C)C)c1O [4-Hydroxymethyl-2,6-di-tert-butylphenol] | Yes | Yes | Yes |
| CC(=O)N[C@@H](CS)C(=O)O [Acetylcysteine] | Yes | No | Yes |
| CCCCCCCCCCCCCCCC(=O)OC[C@H](O)[C@H]1OC(=O)C(O)=C1O [Ascorbyl palmitate] | Yes | Yes | Yes |
| COc1ccc(O)c(C(C)(C)C)c1 [Butylated hydroxyanisole] | Yes | Yes | No |
| Cc1cc(C(C)(C)C)c(O)c(C(C)(C)C)c1 [Butylated hydroxytoluene] | Yes | Yes | No |
| O=S([O-])O.O=S([O-])O.[Ca+2] [Calcium bisulfite] |  |  | Yes |
| O=S([O-])[O-].[Ca+2] [Calcium sulfite] | Yes |  | Yes |
| N[C@@H](CS)C(=O)O [Cysteine] | Yes | No | Yes |
| CCCCCCCCCCCCOC(=O)c1cc(O)c(O)c(O)c1 [Dodecyl gallate] | Yes | Yes | No |
| CCOc1ccc2c(c1)C(C)=CC(C)(C)N2 [Ethoxyquin] |  | Yes |  |
| CCOC(=O)c1cc(O)c(O)c(O)c1 [Ethyl gallate] | Yes | No | Slightly |
| O=C(O)c1cc(O)c(O)c(O)c1 [Gallic acid] | Yes | Yes | Yes |
| N[C@@H](CCC(=O)N[C@@H](CS)C(=O)NCC(=O)O)C(=O)O [Glutathione] |  |  | Yes |
| Cc1cc2c(C(C)C)c(O)c(O)c(C=O)c2c(O)c1-c1c(C)cc2c(C(C)C)c(O)c(O)c(C=O)c2c1O [Gossypol] | Yes | Yes | No |
| Oc1ccc(O)cc1 [Hydroquinone] | Yes | Yes | Yes |
| O=[PH2]O [Hypophosphorus acid] |  |  | Yes |

| Compound | Solubility In alcohol | Solubility In oil | Solubility In water |
| --- | --- | --- | --- |
| OCC(O)CS (stereo not shown) [Monothioglycerol] | Yes |  | Yes |
| CC(Cc1ccc(O)c(O)c1)C(C)Cc1ccc(O)c(O)c1 (stereo not shown) [Nordihydroguaiaretic acid] | Yes | Yes | No |
| CCCCCCCCOC(=O)c1cc(O)c(O)c(O)c1 [Octyl gallate] | Yes | Yes | No |
| O=S([O-])S(=O)(=O)[O-].[K+].[K+] [Potassium metabisulfite] | No | No | Yes |
| CCCOC(=O)c1cc(O)c(O)c(O)c1 [Propyl gallate] | Yes | Slightly | Slightly |
| O=S([O-])O.[Na+] [Sodium bisulfite] |  | No | Yes |
| O=S([O-])S(=O)(=O)[O-].[Na+].[Na+] [Sodium metabisulfite] | Slightly |  | Yes |
| O=S([O-])[O-].[Na+].[Na+] [Sodium sulfite] | No |  | Yes |
| O=S=O [Sulfur dioxide] | Yes | Yes | Yes |
| O=C(OC[C@H]1O[C@@H](OC(=O)c2cc(O)c(O)c(OC(=O)c3cc(O)c(O)c(O)c3)c2)[C@H](OC(=O)c2cc(O)c(O)c(OC(=O)c3cc(O)c(O)c(O)c3)c2)[C@@H](OC(=O)c2cc(O)c(O)c(OC(=O)c3cc(O)c(O)c(O)c3)c2)[C@@H]1OC(=O)c1cc(O)c(O)c(OC(=O)c2cc(O)c(O)c(O)c2)c1)c1cc(O)c(O)c(OC(=O)c2cc(O)c(O)c(O)c2)c1 [Tannic acid] |  |  | Yes |
| OC[C@@H](O)[C@@H](O)[C@H](O)[C@@H](O)CS [Thiosorbitol] | Yes | Yes | Yes |
| NC(N)=S [Thiourea] | Yes | No | Yes |
| Cc1c(C)c2c(c(C)c1O)CC[C@@](C)(CCC[C@H](C)CCC[C@H](C)CCCC(C)C)O2 [d-α-tocopherol (syn), d-α-tocopherol] | Yes | Yes | No |
| Cc1c(O)cc2c(c1C)O[C@](C)(CCC[C@H](C)CCC[C@H](C)CCCC(C)C)CC2 [γ-tocopherol (syn), γ-tocopherol] | Yes | Yes | No |
| D-tocopherol [D-tocopherol (syn)] | Yes | Yes | No |
| Tocopherols |  | Yes |  |
